≈ marks a conversion by molar mass, not a printed value.

Usually solubility (kinetic) stands for solubility judged after dilution from a stock solution rather than from solid. For orientation: AC50 means the concentration at which the activity in the assay is half-maximal. Read a low AC50 as activity at low concentration.

Data set [1] in a line: Aqueous solubility in DMSO at pH 7.4 by quantitative nitrogen detection assay. Format: physicochemical. As to conditions: aqueous solution with DMSO; call rule not given here.
In data set [2] the target is T1, Pyruvate kinase PKM (Homo sapiens, UniProt P14618).
T1 sequence (P14618 whole entry): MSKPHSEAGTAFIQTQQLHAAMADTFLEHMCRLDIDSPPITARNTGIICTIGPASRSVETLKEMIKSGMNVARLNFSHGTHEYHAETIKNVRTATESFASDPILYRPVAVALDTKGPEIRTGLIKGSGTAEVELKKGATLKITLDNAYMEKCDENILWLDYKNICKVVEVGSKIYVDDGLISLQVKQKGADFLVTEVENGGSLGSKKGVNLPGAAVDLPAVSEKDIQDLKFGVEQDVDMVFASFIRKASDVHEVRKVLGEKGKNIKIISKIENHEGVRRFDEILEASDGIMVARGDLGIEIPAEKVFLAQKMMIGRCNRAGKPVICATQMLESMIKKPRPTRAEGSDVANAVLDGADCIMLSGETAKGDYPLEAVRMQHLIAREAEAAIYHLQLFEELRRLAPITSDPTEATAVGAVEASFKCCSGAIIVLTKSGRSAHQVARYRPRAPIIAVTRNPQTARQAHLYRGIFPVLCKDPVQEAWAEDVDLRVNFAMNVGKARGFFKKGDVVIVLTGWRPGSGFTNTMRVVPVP
Description: (§1) Activation of human PKM2 assessed as ATP product formation after 1 hr by luminescent pyruvate kinase-luciferase coupled assay
The target of data set [3] is T1, Pyruvate kinase PKM. This is another data set of the same source.
Description: as §1

Take `Cn1c2cc([S+](C)[O-])sc2c2cnn(Cc3cccc(O)c3)c(=O)c21` (stereo unspecified): the kinetic solubility in data set [1] was determined as 16.9 µg/mL (≈ 45.3 µM). This molecule also displayed a half-maximal activity concentration (AC50) on Pyruvate kinase PKM [2] of 0.13 µM.
As for `CCCCCn1ncc2c3sc(C)cc3n(C)c2c1=O`, the AC50 at Pyruvate kinase PKM [2] was more than 35 µM.
For the molecule `Cn1c2ccsc2c2ncn(Cc3ccccc3F)c(=O)c21`, on Pyruvate kinase PKM [2], the AC50 was more than 35 µM.
As to `Cc1cc2c(s1)c1cnn(-c3ccccc3)c(=O)c1n2C`, at Pyruvate kinase PKM [3], the AC50 entry is recorded as “Not Active”.
In data set [1], `Cc1cc2c(s1)c1cnn(Cc3ccccc3F)c(=O)c1n2C` came in with a solubility (kinetic) of less than 0.2 µg/mL.
On to `CC(O)c1cc2c(s1)c1cnn(Cc3ccccc3F)c(=O)c1n2C` (stereo unspecified), for which the AC50 at Pyruvate kinase PKM [2] stood at 0.136 µM.
Still for that read-out and setting: to `Cc1cc2c(s1)c1cnn(Cc3ccc(C(F)(F)F)cc3F)c(=O)c1n2C` belongs more than 15 µM.
Consider `Cc1cc2[nH]c3c(=O)n(Cc4ccccc4F)ncc3c2s1`, for which the AC50 result at Pyruvate kinase PKM [3] is “Not Active”.
In turn, `CCn1c2cc(C)sc2c2cnn(Cc3ccccc3F)c(=O)c21` showed an AC50 at Pyruvate kinase PKM [2] of 5.9 µM.
On to `Cc1cc2c(s1)c1cnn(Cc3ccccc3F)c(=O)c1n2C(C)C`, for which the AC50 result on Pyruvate kinase PKM [3] is given as “Not Active”.
The molecule `Cc1cc2c(s1)c1c(C)nn(Cc3ccccc3F)c(=O)c1n2C` showed an AC50 at Pyruvate kinase PKM [2] of more than 30 µM.
The same measure, in the same setting: under `COc1ccc(Cn2ncc3c4sc(C)cc4n(C)c3c2=O)cc1F` stands 0.225 µM.
As to `COc1cccc(Cn2ncc3c4sc([S+](C)[O-])cc4n(C)c3c2=O)c1` (stereo unspecified), in data set [1], the solubility (kinetic) came to 37.4 µg/mL (≈ 96.5 µM). The same molecule registered a half-maximal activity concentration (AC50) on Pyruvate kinase PKM [2] of 0.073 µM.
Consider `Cn1c2cc([S+](C)[O-])sc2c2cnn(Cc3cccc(N)c3)c(=O)c21` (stereo unspecified), for which, in data set [1], the solubility (kinetic) came to 29.6 µg/mL (≈ 79.5 µM).
In turn, `Cn1c2cc(B(O)O)sc2c2cnn(Cc3ccccc3F)c(=O)c21` displayed an AC50 at Pyruvate kinase PKM [2] of more than 10 µM.
On the same count and under the same terms, to `Cc1ccc(Cn2ncc3c4sc(C)cc4n(C)c3c2=O)c(F)c1` belongs 0.108 µM.
Consider `Cn1c2cc(S(C)(=O)=O)sc2c2cnn(Cc3ccccc3F)c(=O)c21`, for which the AC50 entry at Pyruvate kinase PKM [3] was “Not Active”.
On to `CC(=O)Nc1cc2c(s1)c1cnn(Cc3ccccc3F)c(=O)c1n2C`, for which the AC50 at Pyruvate kinase PKM [2] was more than 25 µM.
The molecule `Cn1c2cc([S+](C)[O-])sc2c2cnn(Cc3ccccc3F)c(=O)c21` (stereo unspecified) showed a kinetic solubility in data set [1] of 4.4 µg/mL (≈ 11.7 µM).
